Source: patent US20250228869A1, “Benzodiazepine Pyrazolo Carboxamides as N-protein Inhibitors” (Pfizer Inc., priority 2024, published 2025)
Marks after values point to notes of the source that are not given here.

Key:
[1] = tested on: RSV A2; test: RSV plaque reduction assay in HepG2 cells; type: cell-based; settings: human respiratory syncytial virus, HepG2, read-out: RSV A2 plaque, HepG2, EC50 (nM)
Source text: The RSV plaque reduction assay is an infectivity assay which allows quantification of the number of infectious units in a distinct foci of RSV infection. As each plaque originates from a single infectious virus particle an accurate calculation of the anti-viral effect can be obtained by counting plaques in the presence and absence of an anti-viral compound. HepG2 cells (ECACC: 85011430) were passaged in flasks and seeded in 24-well plates in DMEM containing antibiotics and supplemented with 10% FBS. During inoculation and subsequent incubation, cells were cultured in DMEM containing 2% FBS. 100 plaque forming unit (PFU)/well of RSV (RSV A2 VR-1540) was mixed with serial dilutions of compound. Subsequently, 100 μL of the virus/compound mixtures was added to confluent HepG2 cell monolayers. Plates were incubated at 37° C. in a humidified 5% CO2 incubator for 2 hrs. The inoculum was then removed and 1 ml of overlay (4% CMC in 2% DMEM) was added to each well. Cells were cultured for 48 h at 37° C. in a humidified 5% CO2 incubator and then fixed with 75% acetone-25% methanol solution. Plates were washed under running water and blocking solution (2% skimmed milk powder in PBS-Tween) was added to each well and plates incubated on a shaker for 1 h at 37° C. […]

[2] = In vitro bone marrow assay; type: cell-based; settings: primary human bone marrow mononuclear cells, 5 days exposure, total cell count, read-out: Human Bone Marrow Tox IC50
Procedure: In vitro bone marrow assay—Chen, W., et al., J. Pharmacokinetics and Pharmacodynamics, 2020, 47, 163-182.
Primary human bone marrow mononuclear cells (Lonza) were cultured in stemline II hematopoietic stem cell expansion medium (Sigma Aldrich), supplemented with 5% FBS and under induction by the following cytokines (R&D Systems): 25 ng/mL stem cell factor (SCF), ng/mL G-CSF, 10 ng/mL granulocyte macrophage-colony stimulating factor, 3 U/mL erythropoietin (EPO), 15 ng/mL thrombopoietin (TPO), 10 ng/mL IL3, 10 ng/mL IL6, and ng/mL Flt3 ligand. Cell cultures were maintained in the 37° C., 5% CO2, and 98% humidity incubator (see reference for further details). Cells were preincubated for 1 day and were then exposed to either DMSO or compound for 5 additional days. Cell counts were determined manually using a hemocytometer from 10 μL aliquots and converted to the total cell number by adjusting for the volume of the cell culture medium in each well. While the total cell count included myeloid, erythroid, and megakaryocytic lineages, neutrophil precursors comprised the majority of the total cell population given the stimulatory conditions of the cell culture. […]

[3] = Shake flask determination of distribution coefficient (log D); type: physicochemical; settings: 1-octanol / phosphate buffer
Procedure: Shake flask method of determining log D—Miniaturized version of log D assay described in Stopher, D. and McClean, S. J. Pharm. Pharmacol. 1990, 42, 144.
Nadolol, mexiletine, propranolol, quinidine, amitriptyline, and chlorproazine were dissolved in DMSO to a concentration of 10 mM and used as controls in each plate. D-neo-Inositol, 5-[[(2E)-3-[4-[[(5E)-5-[[(3-chloro-2,6-difluorophenyl)methoxy]imino]-5,6-dideoxy-β-D-arabino-hexofuranosyl]oxy]-3-hydroxyphenyl]-2-methyl-1-oxo-2-propenyl]amino]-5-deoxy-1,2-O-methylene-(9Cl) (CAS 247598-17) is used as an Internal Standard (IS).
All liquid handling steps were performed by a Biomek FX. Buffer-saturated 1-octanol (149 μL/well) was added to duplicate 1 mL capacity 96-well plates. Test compounds (10 mM in DMSO; 2 μL/well) and controls (10 mM in DMSO; 2 μL/well) were transferred from Matrix 2D barcoded storage tubes to the 96-well plates.
Following the addition of 1-octanol saturated phosphate buffer (149 μL/well), the plates were sealed with silicone well cap-mats. […]
Samples were analyzed by micro-flow reversed-phase liquid chromatography coupled to tandem mass spectrometry (μfLC-MS/MS). […]
Peak areas were corrected by dilution factors and incorporating internal standard, and the ratio of the corrected peak areas were used to calculate the results (log D value). The log D value for each compound was calculated using the following equation: […]

[4] = Relay method using human hepatocytes (clearance); type: in vitro ADME; settings: human hepatocytes incubations under relay conditions
Source text: Relay Method Using Human Hepatocytes—Di, L., et al., Drug Metabolism and Disposition, 2012, 40, 1860-1865.
Pooled cryopreserved human hepatocytes of 10 donors were purchased from Celsis IVT (Baltimore, MD). This lot of pooled hepatocytes was used for all the studies. When selecting new lots of hepatocytes, enzyme activities need to be verified using marker compounds. Upon thawing, the hepatocytes were resuspended in Williams' medium E (custom formula number 91-5233EC; Invitrogen, Grand Island, NY) supplemented with HEPES and Na2CO3. The cells were counted using the trypan blue exclusion method, and the 24-well hepatocyte plates containing 0.5 million cells/ml were spiked with a compound at a final concentration of 1 μM (dimethyl sulfoxide, final concentration 0.025%; methanol, final concentration 0.125%), in a final incubation volume of 0.50 ml. […]
The LC mobile phases were as follows: (A) HPLC grade water containing 0.1% formic acid, and (B) acetonitrile containing 0.1% formic acid. […] Terfenadine was used as an internal standard for LC-MS/MS quantification in positive ion multiple reaction monitoring mode. All of the test compounds had good linearity with R^2>0.99, and the limit of quantitation was 1 nM for all of the compounds.
Human in vitro intrinsic clearance was calculated using methods as previously described in the reference above.

[5] = tested on: RSV; settings: Antimicrobial Agents and Chemotherapy 2007 (Chapman et al); cited from earlier work

SMILES	EC50 [1] [nM]	IC50 at 5 days [2] [nM]	logD [3]	Human Hepatocyte CLint,app (mL/min/million) [4]	anti-RSV activity [5]
CCS(=O)(=O)c1ccc(-c2nn3c(c2C(=O)N[C@H]2N=C(c4ccccc4)c4cccc(F)c4NC2=O)OCC(C)(C)C3)c(F)c1 [Example 2, (S)-2-(4-(ethylsulfonyl)-2-fluorophenyl)-N-(9-fluoro-2-oxo-5-phenyl-2,3-dihydro-1H-benzo[e][1,4]diazepin-3-yl)-6,6-dimethyl-6,7-dihydro-5H-pyrazolo[5,1-b][1,3]oxazine-3-carboxamide]	3.5	> 40000	3	<0.14* mL/min/million	–
O=C(Nc1ccccc1F)N[C@H]1N=C(c2ccccc2)c2ccccc2NC1=O [RSV604]	–	–	–	–	sub-micromolar
